In PubChem BioAssay AID1845204 (Molecular Pharmacology Branch, DTP, NCI, 2023):

System: HSSY-II tumor spheroid viability
Experiment: Anticancer human tumor HSSY-II cell line growth inhibition;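 also: spheroids exposed to compounds for seven days before reading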;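 as to viability, T/C: percent of DMSO vehicle control viability so 100% = untreated level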
Settings: spheroids with HUVEC and MSC; for IC50: curve of first compound; for viability, T/C: stronger effect = lower value
In short: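 Single agents and combinations were tested on spheroids built from tumor cells plus HUVEC and hMSC, at half-log dilutions starting at or near clinical Cmax, else 10 microM; final DMSO 0.25% (v/v).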

[1] = second compound 1 µM, first compound 0.00949 µM
[2] = second compound 1 µM, first compound 0.03 µM
[3] = second compound 1 µM, first compound 0.0949 µM
[4] = second compound 1 µM, first compound 0.3 µM
[5] = second compound 1 µM, first compound 0.949 µM
[6] = second compound 1 µM, first compound 3 µM
[7] = second compound 3.16 µM, first compound 0.00949 µM
[8] = second compound 3.16 µM, first compound 0.03 µM
[9] = second compound 3.16 µM, first compound 0.0949 µM
[10] = second compound 3.16 µM, first compound 0.3 µM
[11] = second compound 3.16 µM, first compound 0.949 µM
[12] = second compound 3.16 µM, first compound 3 µM
[13] = second compound 10 µM, first compound 0.00949 µM
[14] = second compound 10 µM, first compound 0.03 µM
[15] = second compound 10 µM, first compound 0.0949 µM
[16] = second compound 10 µM, first compound 0.3 µM
[17] = second compound 10 µM, first compound 0.949 µM
[18] = second compound 10 µM, first compound 3 µM
[19] = second compound 31.6 µM, first compound 0.00949 µM
[20] = second compound 31.6 µM, first compound 0.03 µM
[21] = second compound 31.6 µM, first compound 0.0949 µM
[22] = second compound 31.6 µM, first compound 0.3 µM
[23] = second compound 31.6 µM, first compound 0.949 µM
[24] = second compound 31.6 µM, first compound 3 µM
[25] = second compound 100 µM, first compound 0.00949 µM
[26] = second compound 100 µM, first compound 0.03 µM
[27] = second compound 100 µM, first compound 0.0949 µM
[28] = second compound 100 µM, first compound 0.3 µM
[29] = second compound 100 µM, first compound 0.949 µM
[30] = second compound 100 µM, first compound 3 µM

| Structure (SMILES) | IC50 (second compound 1 µM) | IC50 (second compound 3.16 µM) | IC50 (second compound 10 µM) | IC50 (second compound 31.6 µM) | IC50 (second compound 100 µM) | viability, T/C [3] | viability, T/C [4] | viability, T/C [5] | viability, T/C [6] | viability, T/C [9] | viability, T/C [10] | viability, T/C [11] | viability, T/C [12] | viability, T/C [15] | viability, T/C [16] | viability, T/C [17] | viability, T/C [18] | viability, T/C [21] | viability, T/C [22] | viability, T/C [23] | also measured |
| --- | --- | --- | --- | --- | --- | --- | --- | --- | --- | --- | --- | --- | --- | --- | --- | --- | --- | --- | --- | --- | --- |
| CNCc1ccc(-c2cc(-c3nc(-c4ccc(S(=O)(=O)C(C)C)cc4)cnc3N)on2)cc1 + Cn1nnc2c(C(N)=O)ncn2c1=O | 44.1 nM | 49.9 nM | 46 nM | 47 nM | 42.7 nM | 9.33% | 4.77% | 1.51% | 0.14% | 10.3% | 4.71% | 1.26% | 0.11% | 8.12% | 5.47% | 1.58% | 0.12% | 10.7% | 4.8% | 2.03% | viability, T/C [1]: 96.8%; viability, T/C [2]: 70.5%; viability, T/C [7]: 98.4%; viability, T/C [8]: 81.4%; viability, T/C [13]: 102%; viability, T/C [14]: 74.7%; viability, T/C [19]: 100%; viability, T/C [20]: 75%; viability, T/C [24]: 0.15%; viability, T/C [25]: 91.3%; viability, T/C [26]: 69.4%; viability, T/C [27]: 5.96%; viability, T/C [28]: 4.82%; viability, T/C [29]: 1.42%; viability, T/C [30]: 0.2% |
| Cc1sc2c(c1C)C(c1ccc(Cl)cc1)=NC(CC(=O)Nc1ccc(O)cc1)c1nnc(C)n1-2 (stereo not given) + Cn1nnc2c(C(N)=O)ncn2c1=O | 164 nM | 178 nM | 158 nM | 194 nM | 169 nM | 64.7% | 34.3% | 19.3% | 12.8% | 65.9% | 35.9% | 21.6% | 12% | 62.3% | 32.6% | 20.1% | 11.2% | 69.3% | 37.3% | 18.7% | viability, T/C [1]: 98.5%; viability, T/C [2]: 85.1%; viability, T/C [7]: 101%; viability, T/C [8]: 90.6%; viability, T/C [13]: 101%; viability, T/C [14]: 92.9%; viability, T/C [19]: 105%; viability, T/C [20]: 98%; viability, T/C [24]: 8.46%; viability, T/C [25]: 98.1%; viability, T/C [26]: 89.5%; viability, T/C [27]: 68.7%; viability, T/C [28]: 31.2%; viability, T/C [29]: 13.2%; viability, T/C [30]: 5.25% |
| Cn1ncnc1[C@H]1c2n[nH]c(=O)c3cc(F)cc(c23)N[C@@H]1c1ccc(F)cc1 + Cn1nnc2c(C(N)=O)ncn2c1=O | 88.1 nM | 41.7 nM | 21.1 nM | < 9.49 nM | < 9.49 nM | 52.6% | 20.8% | 10.8% | 6.39% | 45.6% | 15.5% | 9.89% | 8.35% | 15.4% | 10.5% | 8.29% | 6.47% | 9.75% | 8.55% | 7.6% | viability, T/C [1]: 86.8%; viability, T/C [2]: 68.6%; viability, T/C [7]: 83%; viability, T/C [8]: 50.1%; viability, T/C [13]: 70.3%; viability, T/C [14]: 41.2%; viability, T/C [19]: 20.1%; viability, T/C [20]: 10.9%; viability, T/C [24]: 4.67%; viability, T/C [25]: 8.89%; viability, T/C [26]: 7.52%; viability, T/C [27]: 8.61%; viability, T/C [28]: 7.59%; viability, T/C [29]: 6.58%; viability, T/C [30]: 5.25% |
| O=C(c1cc(Cc2n[nH]c(=O)c3ccccc23)ccc1F)N1CCN(C(=O)C2CC2)CC1 + Cn1nnc2c(C(N)=O)ncn2c1=O | 6100 nM | 3280 nM | 2480 nM | 751 nM | < 94.9 nM | 98% | 93.6% | 84.2% | 63.6% | 94.9% | 92.5% | 81.9% | 54.8% | 99.6% | 93.3% | 81.3% | 46.5% | 95.5% | 78.5% | 44% | viability, T/C (second compound 1 µM, first compound 9.49 µM): 23.9%; viability, T/C (second compound 1 µM, first compound 30 µM): 59.1%; viability, T/C (second compound 3.16 µM, first compound 9.49 µM): 20.1%; viability, T/C (second compound 3.16 µM, first compound 30 µM): 43.3%; viability, T/C (second compound 10 µM, first compound 9.49 µM): 12%; viability, T/C (second compound 10 µM, first compound 30 µM): 56.4%; viability, T/C [24]: 14%; viability, T/C (second compound 31.6 µM, first compound 9.49 µM): 11.3%; viability, T/C (second compound 31.6 µM, first compound 30 µM): 9.62%; viability, T/C [27]: 43.4%; viability, T/C [28]: 25.2%; viability, T/C [29]: 10.7%; viability, T/C [30]: 10.1%; viability, T/C (second compound 100 µM, first compound 9.49 µM): 8.27%; viability, T/C (second compound 100 µM, first compound 30 µM): 9.08% |
